Measurements taken from patent US6486198B1, “Compounds and methods for the treatment of post traumatic stress disorder” (priority 1999, dated 2002).

Tests used:
[1] = system: PTSD symptoms (PCL-C); assay: PTSD Checklist-Civilian Version (PCL-C) self-report scale at baseline and 4 weeks after starting topiramate; format: in vivo, human; conditions: 17 patients
Description: (§1) Topiramate was added naturalistically to existing pharmacotherapy (see Table 1 for concomitant medications at start of trial), starting at 25 mglday and increasing whenever possible by 25 to 50 mg/day every 3 to 4 days to clinical response. Target symptoms were DSM-IV PTSD criterion B symptoms of nightmares (N =24) and intrusions (intrusive recollections/flashbacks, N=35) involving re-experiencing of traumas. Definitions of improvement, as assessed from patient self-report, included “partial response” as “definite reduction in intensity and frequency of nightmares or intrusions”, and “full response” as “complete cessation of nightmares and intrusions for a sustained period”. Following the seminal observations, in order to systematically identify responsive symptoms, the next 17 patients completed a self-report scale, the PTSD Checklist—Civilian Version (PCL-C)15, at baseline and at 4 weeks after starting topiramate. The patients were instructed to complete the PCL-C for experiences corresponding to traumas consistent with DSM-IV criterion A for PTSD. Paired ttest scores for the PCL-C were calculated with Jandel SigmaStat® v. 2.0.
Response was also assessed in 17 patients who completed the PCL-C prior to topiramate therapy and at Week 4 of treatment: mean total PCL-C scores were 60±10.4 at baseline and 39±10.5 at Week 4 (instrument range: 17 to 85, threshold for active PTSD=[…], paired t-test). Adjusting the baseline score by subtracting by 17 to set the score for no PTSD symptoms to zero, there was a 48% reduction (59.8 to 38.8)/(59.8-17) in total score. Subscale score reductions were similar for criterion B (re-experiencing), criterion C (avoidance), and criterion D (hyperarousal) symptoms: 60%, 49%, and 42%, respectively.

[2] = system: patients meeting DSM-IV criteria for chronic PTSD; assay: Discontinuation, side effects and tolerability in the PTSD patient study; format: in vivo, human
From the text: Thirty five (35) patients meeting DSM-IV criteria for chronic post-traumatic stress disorder (PTSD) were selected for a study of the effects of topiramate administration. Of these, […] had non-hallucinatory PTSD and 6 hallucinatory PTSD. The group with hallucinatory PTSD experienced auditory and/or visual hallucinations containing content specifically associated with identified traumatic events. Whether these were PTSD “flashbacks” or psychotic experiences were at times difficult to ascertain due to fluctuations in reality testing the hallucinations. For this reason, prior to being screened for PTSD, some patients had received psychiatric diagnoses of psychotic disorders despite meeting full diagnostic criteria for PTSD.
as §1
Thirteen patients eventually discontinued treatment: 9 due to side effects (urticaria [N=1], eating cessation [N=2], ocular and limb paresthesias [N=1], severe headaches [N=1], overstimulation/panic [N=2], emergent suicidal ideation [N=1], and memory concerns [N=1]) and 4 for other reasons (patient choice [N=1], lack of relapse upon medication interruption [N=2], lack of efficacy [N=1]). Five of the discontinuers had experienced full symptom remission prior to discontinuation and 3 additional patients reported partial response.
Discontinuation due to medication-associated side effects, such as nausea and memory concerns, may have been due to the presence of other medications, to medication interactions, or to individual variation in time needed to accommodate to initial side effects. Subsequent to discontinuation of topiramate, the patient who experienced urticaria continued to complain of unrelated episodes of urticaria. […] When they occurred, side effects were easily managed by dosage reduction or a brief hiatus in administration.

[3] = system: seizures in rodent models of epilepsy; conditions: several rodent models; cited from earlier work

CC1(C)O[C@@H]2[C@@H](CO[C@@]3(COS(N)(=O)=O)OC(C)(C)O[C@@H]23)O1 [Topiramate, 2,3:4,5-bis-O-(1-methylethylidene)-β-D-fructopyranose sulfamate]
PCL-C subscale score reduction, criterion B (re-experiencing) ([1]; baseline vs Week 4): 60%
PCL-C subscale score reduction, criterion C (avoidance) ([1]; baseline vs Week 4): 49%
PCL-C subscale score reduction, criterion D (hyperarousal) ([1]; baseline vs Week 4): 42%
Reduction in total PCL-C score (baseline adjusted by subtracting 17) ([1]; baseline vs Week 4): 48%
Mean total PCL-C score at Week 4 ([1]; baseline 60±10.4, instrument range 17 to 85, threshold for active PTSD=50): 39±10.5
Safety in the study ([2]; PTSD patients): posed no safety issues
Tolerability ([2]; PTSD population): appeared well tolerated
Patients discontinued due to side effects ([2]; of 35 patients): 9
Patients who eventually discontinued treatment ([2]; of 35 patients): Thirteen
Additional discontinuers reporting partial response ([2]; of thirteen discontinuers): 3 patients
Discontinuers with full symptom remission prior to discontinuation ([2]; of thirteen discontinuers): Five
Seizure block in rodent models of epilepsy [3]: effectively block seizures
